In the test the target is human cannabinoid CB2 receptor (Homo sapiens, UniProt P34972). As to the kind of experiment: Cannabinoid CB2 receptor agonist activity (yeast reporter assay, FDGlu fluorescence). Format: cell-based. The note with it: for EC50: EC50 value at the cloned human cannabinoid CB2 receptor; for Emax: read-out: efficacy value (Emax relative to HU210) at the cloned human cannabinoid CB2 receptor. The method in brief: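 Agonist-driven growth was read as fluorescein fluorescence (ex 485, em 535 nm) from FDGlu cleavage after 24 h at 30 °C, using yeast strain MMY23 carrying human CB2 and chimeric Gpa1/Gαi3. Medium had 10 mM 3-aminotriazole, pH 7.0; four-parameter fits gave EC50, with Emax and EMR versus HU210.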
human cannabinoid CB2 receptor, sequence (P34972 whole entry): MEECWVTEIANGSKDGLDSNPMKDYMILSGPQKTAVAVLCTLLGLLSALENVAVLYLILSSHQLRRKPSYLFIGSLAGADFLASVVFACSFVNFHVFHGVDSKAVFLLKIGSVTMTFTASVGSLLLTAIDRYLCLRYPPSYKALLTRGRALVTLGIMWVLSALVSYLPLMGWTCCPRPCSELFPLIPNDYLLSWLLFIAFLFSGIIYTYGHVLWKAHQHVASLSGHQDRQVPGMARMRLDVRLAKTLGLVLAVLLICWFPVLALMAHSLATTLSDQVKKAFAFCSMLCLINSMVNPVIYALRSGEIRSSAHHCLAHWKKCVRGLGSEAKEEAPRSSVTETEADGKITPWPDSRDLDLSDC

Where only a bound is given, the exact number is not on record here.

Regarding `CN(Cc1ccccc1)C(=O)c1cnc(Nc2ccccc2Cl)nc1C(F)(F)F` [Example 305, 2-(2-Chloro-phenylamino)-4-trifluoromethyl-pyrimidine-5-carboxylic acid N-benzyl-N-methyl-amide], the EC50 (usually the concentration at which the effect is half-maximal) was in the range of 300 to 1000 nM.

Regarding `N#Cc1ccc(CNC(=O)c2cnc(Nc3cccc(F)c3)nc2C(F)(F)F)cc1` [Example 306, 2-(3-Fluoro-phenylamino)-4-trifluoromethyl-pyrimidine-5-carboxylic acid N-(4-cyano-benzyl)amide], the EC50 was in the range of 300 to 1000 nM and the Emax (usually the size of the effect at its maximum, as opposed to the concentration needed) was > 50%.

`O=C(NCc1ccc(F)c(F)c1)c1cnc(Nc2cccc(Cl)c2)nc1C(F)(F)F` [Example 346, 2-(3-Chloro-phenylamino)-4-trifluoromethyl-pyrimidine-5-carboxylic acid 3,4-difluoro-benzylamide] showed an EC50 of 20 to 300 nM.

Regarding `O=C(NCc1ccc(F)cc1)c1cnc(Nc2ccc(F)c(Cl)c2)nc1C(F)(F)F` [Example 347, 2-(3-Chloro-4-fluoro-phenylamino)-4-trifluoromethyl-pyrimidine-5-carboxylic acid 4-fluoro-benzylamide], the EC50 lay within 20 to 300 nM.

As to `O=C(NCc1ccc(F)cc1)c1cnc(Nc2cccc(Cl)c2F)nc1C(F)(F)F` [Example 348, 2-(3-Chloro-2-fluoro-phenylamino)-4-trifluoromethyl-pyrimidine-5-carboxylic acid 4-fluoro-benzylamide], the EC50 was in the range of 20 to 300 nM.

`O=C(NCc1ccc(F)cc1)c1cnc(Nc2cc(Cl)ccc2F)nc1C(F)(F)F` [Example 349, 2-(5-Chloro-2-fluoro-phenylamino)-4-trifluoromethyl-pyrimidine-5-carboxylic acid 4-fluoro-benzylamide] came in with an EC50 of 20 to 300 nM.

With `O=C(NCc1ccc(F)cc1)c1cnc(Nc2cc(F)cc(F)c2)nc1C(F)(F)F` [Example 350, 2-(3,5-Difluoro-phenylamino)-4-trifluoromethyl-pyrimidine-5-carboxylic acid 4-fluoro-benzylamide], the EC50 was 20 to 300 nM.

Turning to `N#Cc1ccc(Nc2ncc(C(=O)NCc3ccc(F)cc3)c(C(F)(F)F)n2)cc1Cl` [Example 351, 2-(3-Chloro-4-cyano-phenylamino)-4-trifluoromethyl-pyrimidine-5-carboxylic acid 4-fluoro-benzylamide], the EC50 was in the range of 20 to 300 nM and the Emax is > 50%.

Turning to `COc1cccc(Nc2ncc(C(=O)NCc3ccncc3)c(C(F)(F)F)n2)c1` [Example 352, 2-(3-Methoxy-phenylamino)-4-trifluoromethyl-pyrimidine-5-carboxylic acid (pyridin-4-ylmethyl)-amide], the EC50 lay in the range of 20 to 300 nM.

Compound `O=C(NCc1ccnc(F)c1)c1cnc(Nc2cccc(Br)c2)nc1C(F)(F)F` [Example 353, 2-(3-Bromo-phenylamino)-4-trifluoromethyl-pyrimidine-5-carboxylic acid (2-fluoro-pyridin-4-ylmethyl)-amide] had an EC50 of 20 to 300 nM.

Compound `O=C(NCc1ccnc(F)c1)c1cnc(Nc2cccc(F)c2)nc1C(F)(F)F` [Example 354, 2-(3-Fluoro-phenylamino)-4-trifluoromethyl-pyrimidine-5-carboxylic acid (2-fluoro-pyridin-4-ylmethyl)-amide] showed an EC50 of 20 to 300 nM.

`O=C(NCc1ccnc(F)c1)c1cnc(Nc2cc(Cl)ccc2Cl)nc1C(F)(F)F` [Example 355, 2-(2,5-Dichloro-phenylamino)-4-trifluoromethyl-pyrimidine-5-carboxylic acid (2-fluoro-pyridin-4-ylmethyl)-amide] came in with an EC50 of 20 to 300 nM.

`O=C(NCc1ccnc(F)c1)c1cnc(Nc2cc(Cl)cc(Cl)c2)nc1C(F)(F)F` [Example 356, 2-(3,5-Dichloro-phenylamino)-4-trifluoromethyl-pyrimidine-5-carboxylic acid (2-fluoro-pyridin-4-ylmethyl)-amide] came in with an EC50 of 20 to 300 nM.

In turn, `O=C(NCc1ccnc(F)c1)c1cnc(Nc2ccc(Cl)c(Cl)c2)nc1C(F)(F)F` [Example 357, 2-(3,4-Dichloro-phenylamino)-4-trifluoromethyl-pyrimidine-5-carboxylic acid (2-fluoro-pyridin-4-ylmethyl)-amide] registered an EC50 of 20 to 300 nM.

`O=C(NCc1ccnc(F)c1)c1cnc(Nc2c(Cl)cccc2Cl)nc1C(F)(F)F` [Example 358, 2-(2,6-Dichloro-phenylamino)-4-trifluoromethyl-pyrimidine-5-carboxylic acid (2-fluoro-pyridin-4-ylmethyl)-amide] showed an EC50 of 20 to 300 nM.

`O=C(NCc1ccnc(F)c1)c1cnc(Nc2cccc(Cl)c2Cl)nc1C(F)(F)F` [Example 359, 2-(2,3-Dichloro-phenylamino)-4-trifluoromethyl-pyrimidine-5-carboxylic acid (2-fluoro-pyridin-4-ylmethyl)-amide] came in with an EC50 of 20 to 300 nM.

`O=C(NCc1ccnc(F)c1)c1cnc(Nc2ccc(Cl)cc2Cl)nc1C(F)(F)F` [Example 360, 2-(2,4-Dichloro-phenylamino)-4-trifluoromethyl-pyrimidine-5-carboxylic acid (2-fluoro-pyridin-4-ylmethyl)-amide]: the EC50 lay within 20 to 300 nM.

With `N#Cc1cccc(Nc2ncc(C(=O)NCc3ccccc3)c(C(F)(F)F)n2)c1` [Example 362, 2-(3-Cyano-phenylamino)-4-trifluoromethyl-pyrimidine-5-carboxylic acid benzylamide], the EC50 is 20 to 300 nM and the Emax is > 50%.

In turn, `O=C(NCc1ccccc1)c1cnc(Nc2c(Cl)cccc2Cl)nc1C(F)(F)F` [Example 363, 2-(2,6-Dichloro-phenylamino)-4-trifluoromethyl-pyrimidine-5-carboxylic acid benzylamide] showed an EC50 of 20 to 300 nM.

`O=C(NCc1ccc(F)cc1)c1cnc(Nc2cccc(Cl)c2Cl)nc1C(F)(F)F` [Example 364, 2-(2,3-Dichloro-phenylamino)-4-trifluoromethyl-pyrimidine-5-carboxylic acid 4-fluoro-benzylamide] gave an EC50 of 20 to 300 nM.

Consider `O=C(NCc1ccc(F)cc1)c1cnc(Nc2ccc(Cl)cc2Cl)nc1C(F)(F)F` [Example 365, 2-(2,4-Dichloro-phenylamino)-4-trifluoromethyl-pyrimidine-5-carboxylic acid 4-fluoro-benzylamide], for which the EC50 is 20 to 300 nM.

With `O=C(NCc1ccc(F)cc1)c1cnc(Nc2cc(Cl)ccc2Cl)nc1C(F)(F)F` [Example 366, 2-(2,5-Dichloro-phenylamino)-4-trifluoromethyl-pyrimidine-5-carboxylic acid 4-fluoro-benzylamide], the EC50 lay within 20 to 300 nM.

For the compound `O=C(NCc1ccc(F)cc1)c1cnc(Nc2ccc(Cl)c(Cl)c2)nc1C(F)(F)F` [Example 367, 2-(3,4-Dichloro-phenylamino)-4-trifluoromethyl-pyrimidine-5-carboxylic acid 4-fluoro-benzylamide], the EC50 was in the range of 20 to 300 nM.

Take `O=C(NCc1ccc(F)cc1F)c1cnc(Nc2cccc(Cl)c2)nc1C(F)(F)F` [Example 368, 2-(3-Chloro-phenylamino)-4-trifluoromethyl-pyrimidine-5-carboxylic acid 2,4-difluoro-benzylamide]: the EC50 lay within 20 to 300 nM.

`O=C(NCc1ccc(F)cc1)c1cnc(Nc2ccc(C(F)(F)F)c(F)c2)nc1C(F)(F)F` [Example 369, 2-(3-Fluoro-4-trifluoromethyl-phenylamino)-4-trifluoromethyl-pyrimidine-5-carboxylic acid 4-fluoro-benzylamide] came in with an EC50 of 20 to 300 nM.

Consider `CC(C)c1cc(Nc2cccc(C(F)(F)F)c2)ncc1C(=O)NCc1ccc(F)cc1` [Example 393, N-(4-Fluoro-benzyl)-4-isopropyl-6-(3-trifluoromethyl-phenylamino)-nicotinamide], for which the Emax is > 50%.

As for `Cc1cccc(Nc2cc(C(C)C)c(C(=O)NCc3ccc(F)cc3)cn2)c1C#N` [Example 395, 6-(2-Cyano-3-methyl-phenylamino)-N-(4-fluoro-benzyl)-4-isopropyl-nicotinamide], the Emax was > 50%.

For the compound `O=C(NCc1ccncc1)c1ccc(Nc2cccc(Cl)c2)nc1C(F)(F)F` [Example 457, 6-(3-Chloro-phenylamino)-N-(pyridin-4-ylmethyl)-2-trifluoromethyl-nicotinamide], the Emax was > 50%.

For `O=C(NCC1CCOCC1)c1ccc(Nc2cccc(Cl)c2)nc1C(F)(F)F` [Example 662, 6-(3-Chloro-phenylamino)-N-(tetrahydro-pyran-4-ylmethyl)-2-trifluoromethyl-nicotinamide], the Emax is > 50%.

Take `CC(C)c1cc(Nc2cc(Cl)ccc2C#N)ncc1C(=O)NCC1CCOCC1` [Example 679, 6-(5-Chloro-2-cyano-phenylamino)-4-isopropyl-N-(tetrahydro-pyran-4-ylmethyl)-nicotinamide]: the Emax is < 30%.

With `CC(C)c1cc(Nc2cccc(Cl)c2)ncc1C(=O)NCC1CCS(=O)(=O)C1` (centres unmarked) [Example 681, 6-(3-Chloro-phenylamino)-N-(1,1-dioxo-tetrahydro-1l^6-thiophen-3-ylmethyl)-4-isopropyl-nicotinamide], the Emax is > 50%.

As to `CC(C)c1cc(Nc2cccc(OC(F)(F)F)c2)ncc1C(=O)NCC1CCC1` [Example 682, N-Cyclobutylmethyl-4 isopropyl-6-(3-trifluoromethoxy-phenylamino)-nicotinamide], the Emax is > 50%.

As to `CC(C)c1cc(Nc2ccc(C#N)cc2F)ncc1C(=O)NCC1CCCC1` [Example 751, 6-(4-Cyano-2-fluoro-phenylamino)-N-cyclopentylmethyl-4-isopropyl-nicotinamide], the Emax was > 50%.

With `CC(C)c1cc(Nc2ccc(Br)c(C(F)(F)F)c2)ncc1C(=O)NCC1CCOCC1` [Example 752, 6-(4-Bromo-3-trifluoromethyl-phenylamino)-4-isopropyl-N-(tetrahydropyran-4-ylmethyl)-nicotinamide], the half-maximal effective concentration (EC50) was in the range of 300 to 1000 nM and the Emax is > 50%.

(Values after US20080132505A1 (Glaxo Group Limited, priority 2004, published 2008).)
